# Reference: patent publication US6369059B1, “Tetracyclic derivatives, process of preparation and use” (ICOS Corporation, priority 1994, dated 2002)
row,Compound,melting point [°C]
1,"O=C1NCC(=O)N2[C@@H](c3ccc4c(c3)OCO4)c3[nH]c4ccccc4c3C[C@H]12 (relative stereo) [Example 4, Cis-2,3,6,7,12,12a-Hexahydro-6-(3,4-methylenedioxyphenyl)-pyrazino[2′,1′:6,1]pyrido[3,4-b]indole-1,4-dione]",283 to 285
2,"O=C1[C@H]2Cc3c([nH]c4ccccc34)[C@H](c3ccc4c(c3)OCO4)N2C(=O)CN1Cc1ccccn1 (relative stereo) [Example 10, Cis-2,3,6,7,12,12a-Hexahydro-2-(2-pyridylmethyl)-6-(3,4-methylenedioxyphenyl)-pyrazino[2′,1′:6,1]pyrido[3,4-b]indole-1,4-dione]",285 to 286
3,"CCCN1CC(=O)N2[C@@H](c3ccc4c(c3)OCO4)c3[nH]c4ccccc4c3C[C@@H]2C1=O (relative stereo) [Example 15, Cis-2,3,6,7,12,12a-Hexahydro-6-(3,4-methylenedioxyphenyl)-2-propyl-pyrazino[2′,1′:6,1]pyrido[3,4-b]indole-1,4-dione]",270 to 271
4,"O=C1[C@H]2Cc3c([nH]c4ccccc34)[C@H](c3ccc4c(c3)OCO4)N2C(=O)CN1C1CC1 (relative stereo) [Example 17, Cis-2,3,6,7,12,12a-Hexahydro-2cyclopropyl-6-(3,4-methylenedioxyphenyl)-pyrazino[2′,1′:6,1]pyrido[3,4-b]indole-1,4-dione]",290 to 292
5,"CCCCN1CC(=O)N2[C@@H](c3ccc4c(c3)OCO4)c3[nH]c4ccccc4c3C[C@@H]2C1=O (relative stereo) [Example 18, Cis-2,3,6,7,12,12a-Hexahydro-2-butyl-6-(3,4-methylenedioxyphenyl)-pyrazino[2′,1′:6,1]pyrido[3,4-b]indole-1,4-dione]",241 to 243
6,"O=C1[C@H]2Cc3c([nH]c4ccccc34)[C@H](c3ccc4c(c3)OCO4)N2C(=O)CN1CC1CC1 (relative stereo) [Example 20, Cis-2,3,6,7,12,12a-Hexahydro-2-cyclopropylmethyl-6-(3,4-methylenedioxyphenyl)-pyrazino[2′,1′:6,1]pyrido[3,4-b]indole-1,4-dione]",217 to 218
7,"O=C1[C@H]2Cc3c([nH]c4ccccc34)[C@H](c3ccc4c(c3)OCO4)N2C(=O)CN1C1CCCC1 (relative stereo) [Example 21, Cis-2,3,6,7,12,12a-Hexahydro-2-cyclopentyl-6-(3,4-methylenedioxyphenyl)-pyrazino[2′,1′:6,1]pyrido[3,4-b]indole-1,4-dione]",270
8,"O=C1[C@H]2Cc3c([nH]c4ccccc34)[C@H](c3ccc4c(c3)OCO4)N2C(=O)CN1Cc1ccc(F)cc1 (relative stereo) [Example 24, Cis-2,3,6,7,12,12a-Hexahydro-2-(4-fluorobenzyl)6-(3,4-methylenedioxyphenyl)-pyrazino[2′,1′:6,1]pyrido[3,4-b]indole-1,4-dione]",281 to 283
9,"COc1ccc([C@H]2c3[nH]c4ccccc4c3C[C@H]3C(=O)N(C)CC(=O)N23)cc1 (relative stereo) [Example 26, Trans-2,3,6,7,12,12a-Hexahydro-6-(4-methoxyphenyl)-2-methyl-pyrazino[2′,1′:6,1]pyrido[3,4-b]indole-1,4-dione]",225 to 228
10,"CCN1CC(=O)N2[C@@H](c3ccc(OC)cc3)c3[nH]c4ccccc4c3C[C@@H]2C1=O (relative stereo) [Example 27, Cis-2,3,6,7,12,12a-Hexahydro-2-ethyl-6(4-methoxyphenyl)-pyrazino[2′,1′:6,1]pyrido[3,4-b]indole-1,4-dione]",245 to 255
11,"CCCCN1CC(=O)N2[C@@H](c3ccc(OC)cc3)c3[nH]c4ccccc4c3C[C@@H]2C1=O (relative stereo) [Example 29, Cis-2,3,6,7,12,12a-Hexahydro-2-butyl-6-(4-methoxyphenyl)-pyrazino[2′,1′:6,1]pyrido[3,4-b]indole-1,4-dione]",157
12,"CCCCN1CC(=O)N2[C@@H](c3ccc(OC)cc3)c3[nH]c4ccccc4c3C[C@H]2C1=O (relative stereo) [Example 30, Trans-2,3,6,7,12,12a-Hexahydro-2-butyl-6-(4-methoxyphenyl)-pyrazino[2′,1′:6,1]pyrido[3,4-b]indole-1,4-dione]",212 to 214
13,"COc1cccc([C@H]2c3[nH]c4ccccc4c3C[C@@H]3C(=O)N(C)CC(=O)N23)c1 (relative stereo) [Example 33, Cis-2,3,6,7,12,12a-Hexahydro-6-(3-methoxyphenyl)-2-methyl-pyrazino[2′,1′:6,1]pyrido[3,4-b]indole-1,4-dione]",267 to 269
14,"CCOc1ccc([C@H]2c3[nH]c4ccccc4c3C[C@@H]3C(=O)N(C)CC(=O)N23)cc1 (relative stereo) [Example 34, Cis-2,3,6,7,12,12a-Hexahydro-6-(4-ethoxyphenyl)-2methyl-pyrazino[2′,1′:6,1]pyrido[3,4-b]indole-1,4-dione]",247 to 248
15,"CN1CC(=O)N2[C@@H](c3ccc4c(c3)OCCO4)c3[nH]c4ccccc4c3C[C@@H]2C1=O (relative stereo) [Example 38, Cis-2,3,6,7,12,12a-Hexahydro-6-(3,4-ethylenedioxyphenyl)-2-methyl-pyrazino[2′,1′:6,1]pyrido[3,4-b]indole-1,4-dione]",303 to 305
16,"CCCCN1CC(=O)N2[C@@H](c3ccc(Cl)cc3)c3[nH]c4ccccc4c3C[C@@H]2C1=O (relative stereo) [Example 42, Cis-2,3,6,7,12,12a-Hexahydro-2-butyl-6-(4-chlorophenyl)-pyrazino[2′,1′:6,1]pyrido[3,4-b]indole-1,4-dione]",164 to 166
17,"CN1CC(=O)N2[C@@H](c3ccc(Cl)c(Cl)c3)c3[nH]c4ccccc4c3C[C@@H]2C1=O (relative stereo) [Example 43, Cis-2,3,6,7,12,12a-Hexahydro-6-(3,4-dichlorophenyl)-2-methyl-pyrazino[2′,1′:6,1]pyrido[3,4-b]indole-1,4-dione]",> 260
18,"CCCCN1CC(=O)N2[C@@H](c3ccccc3)c3[nH]c4ccccc4c3C[C@@H]2C1=O (relative stereo) [Example 44, Cis-2,3,6,7,12,12a-Hexahydro-2-butyl-6-phenyl-pyrazino[2′,1′:6,1]pyrido[3,4-b]indole-1,4-dione]",243 to 245
19,"O=C1[C@@H]2Cc3c([nH]c4ccccc34)[C@H](c3ccccc3)N2C(=O)CN1Cc1ccccc1 (relative stereo) [Example 46, Trans-2,3,6,7,12,12a-Hexahydro-2-benzyl-6-phenyl-pyrazino[2′,1′:6,1]pyrido[3,4-b]indole-1,4-dione]",284
20,"CN1CC(=O)N2[C@@H](c3ccc4ccccc4c3)c3[nH]c4ccccc4c3C[C@@H]2C1=O (relative stereo) [Example 50, Cis-2,3,6,7,12,12a-Hexahydro-2-methyl-6-(2-naphthyl)-pyrazino[2′,1′:6,1]pyrido[3,4-b]indole-1,4-dione]",> 260
21,"CCCCN1CC(=O)N2[C@@H](c3cccs3)c3[nH]c4ccccc4c3C[C@@H]2C1=O (relative stereo) [Example 51, Cis-2,3,6,7,12,12a-Hexahydro-2-butyl-6-(2-thienyl)-pyrazino[2′,1′:6,1]pyrido[3,4-b]indole-1,4-dione]",226
22,"O=C1[C@H]2Cc3c([nH]c4ccccc34)[C@H](c3ccc(Br)s3)N2C(=O)CN1CC1CC1 (relative stereo) [Example 54, Cis-2,3,6,7,12,12a-Hexahydro-6-(5-bromo-2-thienyl)-2-cyclopropylmethyl-pyrazino[2′,1′:6,1]pyrido[3,4-b]indole-1,4-dione]",190
23,"O=C1[C@H]2Cc3c([nH]c4ccccc34)[C@H](c3ccc(Br)s3)N2C(=O)CN1C1CCCC1 (relative stereo) [Example 55, Cis-2,3,6,7,12,12a-Hexahydro-6-(5-bromo-2-thienyl)-2-cyclopentyl-pyrazino[2′,1′:6,1]pyrido[3,4-b]indole-1,4-dione]",252
24,"CN1CC(=O)N2[C@@H](c3ccsc3)c3[nH]c4ccccc4c3C[C@@H]2C1=O (relative stereo) [Example 57, Cis-2,3,6,7,12,12a-Hexahydro-2-methyl-6-(3-thienyl)-pyrazino[2′,1′:6,1]pyrido[3,4-b]indole-1,4-dione]",290 to 295
25,"Cc1ccc([C@H]2c3[nH]c4ccccc4c3C[C@@H]3C(=O)N(C)CC(=O)N23)cc1 (relative stereo) [Example 61, Cis-2,3,6,7,12,12a-Hexahydro-2-methyl-6-(4-methylphenyl)-pyrazino[2′,1′:6,1]pyrido[3,4-b]indole-1,4-dione]",> 260
26,"Cc1ccc([C@H]2c3[nH]c4ccccc4c3C[C@@H]3C(=O)N(C(C)C)CC(=O)N23)cc1 (relative stereo) [Example 62, Cis-2,3,6,7,12,12a-Hexahydro-2-isopropyl-6-(4-methylphenyl)-pyrazino[2′,1′:6,1]pyrido[3,4-b]indole-1,4-dione]",170
27,"Cc1ccc([C@H]2c3[nH]c4ccccc4c3C[C@@H]3C(=O)N(CC4CC4)CC(=O)N23)cc1 (relative stereo) [Example 64, Cis-2,3,6,7,12,12a-Hexahydro-2-cyclopropylmethyl-6-(4-methylphenyl)-pyrazino[2′,1′:6,1]pyrido[3,4-b]indole-1,4-dione]",194
28,"Cc1cccc([C@H]2c3[nH]c4ccccc4c3C[C@@H]3C(=O)N(C)CC(=O)N23)c1 (relative stereo) [Example 65, Cis-2,3,6,7,12,12a-Hexahydro-2-methyl-6-(3-methylphenyl)-pyrazino[2′,1′:6,1]pyrido[3,4-b]indole-1,4-dione]",> 260
29,"CCCCN1CC(=O)N2[C@@H](c3ccc(C(F)(F)F)cc3)c3[nH]c4ccccc4c3C[C@@H]2C1=O (relative stereo) [Example 66, Cis-2,3,6,7,12,12a-Hexahydro-2-butyl-6-(4-trifluoromethylphenyl)-pyrazino[2′,1′:6,1]pyrido[3,4-b]indole-1,4-dione]",155
